Measurements from patent EP4667483A1, “HUMAN TRANSFERRIN RECEPTOR-BINDING PEPTIDE” (JCR Pharmaceuticals Co., Ltd., priority 2023, dated 2024).
Numbered stars: 1 amine (or outer) side, 2 acyl side, 3 side chain; on linkers, the order of the positions; unused ones are H or OH. Bridge positions count the residues as written; N and C are the ends. Square brackets hold non-standard residues; d marks the D form. Peptide text beside a SMILES is read from it. * marks the point of attachment. Trp(1-CH2COOH) = N[C@@H](Cc1cn(CC(=O)O)c2ccccc12)C(=O)O; CH2CON(CH2CH2)2NCH2COOH = O=C(O)CN1CCN(C(=O)C*)CC1; NMePhe(4-COOH) = CN[C@@H](Cc1ccc(C(=O)O)cc1)C(=O)O; X1 = O=C([C@H](Cc1cccc(C(=O)[*:3])c1)N[*:1])[*:2]; Nle(6-morpholino) = N[C@@H](CCCCN1CCOCC1)C(=O)O; Phe(3-COOH) = N[C@@H](Cc1cccc(C(=O)O)c1)C(=O)O; Trp(7-aza) = N[C@@H](Cc1c[nH]c2ncccc12)C(=O)O; NMePhe(3-Cl) = CN[C@@H](Cc1cccc(Cl)c1)C(=O)O; 3Pal(6-NH2) = Nc1ccc(C[C@H](N)C(=O)O)cn1; NMeW = CN[C@@H](Cc1c[nH]c2ccccc12)C(=O)O; NMeY = CN[C@@H](Cc1ccc(O)cc1)C(=O)O; Nva(3-Et) = CCC(CC)[C@H](N)C(=O)O; 4Pal = N[C@@H](Cc1ccncc1)C(=O)O; PEG4 = NCCOCCOCCOCCOCCC(=O)O; Carboxymethyl = O=C(O)C*

Tests used:
[1] = target: T1, human transferrin receptor (hTfR) (Homo sapiens, UniProt P02786); test: SPR measurement under pH 7.4 conditions (Biacore T200, CM3 chip, hTfR captured by His Tag antibody); type: binding; settings: read-out: hTfR SPR pH7.4 KD
T1 sequence (P02786 whole entry): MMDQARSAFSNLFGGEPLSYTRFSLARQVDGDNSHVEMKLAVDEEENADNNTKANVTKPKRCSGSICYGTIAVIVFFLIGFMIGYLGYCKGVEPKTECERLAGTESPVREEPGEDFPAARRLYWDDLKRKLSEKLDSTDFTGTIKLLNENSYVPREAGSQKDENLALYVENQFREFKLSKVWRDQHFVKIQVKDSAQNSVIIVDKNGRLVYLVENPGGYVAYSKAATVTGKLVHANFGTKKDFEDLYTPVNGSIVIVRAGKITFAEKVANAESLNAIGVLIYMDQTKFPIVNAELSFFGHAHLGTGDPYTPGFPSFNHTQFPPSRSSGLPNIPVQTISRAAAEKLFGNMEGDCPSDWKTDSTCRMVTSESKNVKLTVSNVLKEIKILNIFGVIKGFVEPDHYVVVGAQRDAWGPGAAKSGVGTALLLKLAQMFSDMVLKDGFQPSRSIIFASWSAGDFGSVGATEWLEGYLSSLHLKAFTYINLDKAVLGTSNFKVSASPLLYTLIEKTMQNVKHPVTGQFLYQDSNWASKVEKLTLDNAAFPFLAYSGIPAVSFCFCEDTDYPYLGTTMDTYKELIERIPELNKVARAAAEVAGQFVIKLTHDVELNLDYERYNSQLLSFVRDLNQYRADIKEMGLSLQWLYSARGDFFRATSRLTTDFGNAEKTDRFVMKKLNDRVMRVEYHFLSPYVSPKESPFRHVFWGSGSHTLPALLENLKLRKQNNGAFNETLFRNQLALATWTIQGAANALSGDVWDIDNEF

[2] = target: T1, human transferrin receptor (hTfR); test: SPR measurement under pH 6.0 conditions (Biacore T200, NTA chip, immobilized hTfR); type: binding; settings: read-out: hTfR SPR pH6.0 KD
[3] = SPR, pH 7.4, peptide with the linker named in the table
[4] = SPR, pH 6.0, peptide with the linker named in the table

Row | Compound | Kd ([1]; pH 7.4, single-cycle kinetics) [nM] | Kd ([2]; pH 6.0, single-cycle kinetics) [nM] | other results
1 | CC[C@H](C)[C@@H]1NC(=O)[C@H](Cc2ccc(OC)cc2)NC(=O)[C@H](Cc2ccc(N)nc2)NC(=O)[C@H](CC(N)=O)NC(=O)[C@H](Cc2c[nH]c3ccccc23)N(C)C(=O)[C@H](C(C)C)NC(=O)[C@H](Cc2cccc(Cl)c2)N(C)C(=O)[C@H](C(C)C)NC(=O)[C@H](C)NC(=O)CSC[C@@H](C(=O)NCCOCCOCCOCCOCCC(N)=O)NC(=O)[C@H](Cc2ccc(O)cc2)N(C)C(=O)[C@H](Cc2ccccc2)NC(=O)[C@H](CCCNC(=N)N)NC(=O)[C@H](CCC(N)=O)NC(=O)[C@H]([C@@H](C)CC)NC1=O [compound 170] ({CH2CO}-AV[NMePhe(3-Cl)]V[NMeW]N[3Pal(6-NH2)]Y(Me)IIQRF[NMeY]C[PEG4]-NH2; thioether N-15) | 1.34 | 7.61 | 
2 | CC[C@H](C)[C@@H]1NC(=O)[C@H](Cc2ccc(OC)cc2)NC(=O)[C@H](Cc2ccc(N)nc2)NC(=O)[C@H](CC(N)=O)NC(=O)[C@H](Cc2c[nH]c3ncccc23)NC(=O)[C@H](C(C)C)NC(=O)[C@H](Cc2cccc(Cl)c2)N(C)C(=O)[C@H](C(C)C)NC(=O)[C@H](C)NC(=O)CSC[C@@H](C(=O)NCCOCCOCCOCCOCCC(N)=O)NC(=O)[C@H](Cc2ccc(O)cc2)N(C)C(=O)[C@H](Cc2ccncc2)NC(=O)[C@H](CCCNC(=N)N)NC(=O)[C@H](CCC(=O)NC[C@H](O)[C@@H](O)[C@H](O)[C@H](O)CO)NC(=O)[C@H]([C@@H](C)CC)NC1=O [compound 10] | 2.5 | 36.6 | 
3 | CCC(CC)[C@@H]1NC(=O)[C@H](Cc2ccc(OCC(=O)O)cc2)NC(=O)[C@H](Cc2ccc(O)cc2)NC(=O)[C@H](CC(N)=O)NC(=O)[C@H](Cc2c[nH]c3ncccc23)NC(=O)[C@H](C(C)C)NC(=O)[C@H](Cc2cccc(Cl)c2)N(C)C(=O)[C@H](C(C)C)NC(=O)[C@H](C)NC(=O)CSC[C@@H](C(=O)NCCOCCOCCOCCOCCC(N)=O)NC(=O)[C@H](Cc2ccc(C(=O)O)cc2)N(C)C(=O)[C@H](Cc2cccc(C(=O)O)c2)NC(=O)[C@H](CCCNC(=N)N)NC(=O)[C@H](CCC(N)=O)NC(=O)[C@H]([C@@H](C)CC)NC1=O [compound 108] ({CH2CO}-AV[NMePhe(3-Cl)]V[Trp(7-aza)]NYY(Carboxymethyl)[Nva(3-Et)]IQR[Phe(3-COOH)][NMePhe(4-COOH)]C[PEG4]-NH2; thioether N-15) |  |  | Kd [1, 3]: 13.9 nM; Kd [2, 4]: 36.1 nM
4 | CCC(CC)[C@@H]1NC(=O)[C@H](Cc2ccc(OC)cc2)NC(=O)[C@H](Cc2ccc(O)cc2)NC(=O)[C@H](CC(N)=O)NC(=O)[C@H](Cc2c[nH]c3ncccc23)NC(=O)[C@H](C(C)C)NC(=O)[C@H](Cc2cccc(Cl)c2)N(C)C(=O)[C@H](C(C)C)NC(=O)[C@H](C)NC(=O)CSC[C@@H](C(=O)NCCOCCOCCOCCOCCC(N)=O)NC(=O)[C@H](Cc2ccc(O)cc2)N(C)C(=O)[C@H](Cc2ccncc2)NC(=O)[C@H](CCCNC(=N)N)NC(=O)[C@H](CCCCN2CCOCC2)NC(=O)[C@H]([C@@H](C)CC)NC1=O [compound 54] ({CH2CO}-AV[NMePhe(3-Cl)]V[Trp(7-aza)]NYY(Me)[Nva(3-Et)]I[Nle(6-morpholino)]R[4Pal][NMeY]C[PEG4]-NH2; thioether N-15) | 1.38 | 9.2 | 
5 | CC[C@H](C)[C@@H]1NC(=O)[C@H](Cc2ccc(OC)cc2)NC(=O)[C@H](Cc2ccc(N)nc2)NC(=O)[C@H](CC(N)=O)NC(=O)[C@H](Cc2c[nH]c3ncccc23)NC(=O)[C@H](C(C)C)NC(=O)[C@H](Cc2cccc(Cl)c2)N(C)C(=O)[C@H](C(C)C)NC(=O)[C@H](C)NC(=O)CSC[C@@H](C(=O)NCC(=O)NCC(=O)NCC(=O)NCC(=O)N[C@@H](CO)C(=O)N[C@@H](CO)C(=O)N[C@@H](CCCCN=[N+]=[N-])C(N)=O)NC(=O)[C@H](Cc2ccc(O)cc2)N(C)C(=O)[C@H](Cc2ccncc2)NC(=O)[C@H](CCCCN2CCOCC2)NC(=O)[C@H](CCCCN2CCOCC2)NC(=O)[C@H]([C@@H](C)CC)NC1=O [compound 192] |  |  | Kd ([1]; SPR, pH 7.4, Table 1-3-2-2): 1.49 nM; Kd ([2]; SPR, pH 6.0, Table 1-3-2-2): 10.5 nM
6 | CC[C@H](C)[C@@H]1NC(=O)[C@H](Cc2ccc(OC)cc2)NC(=O)[C@H](Cc2ccc(N)nc2)NC(=O)[C@H](CC(N)=O)NC(=O)[C@H](Cc2c[nH]c3ccccc23)NC(=O)[C@H](C(C)C)NC(=O)[C@H](Cc2cccc(Cl)c2)N(C)C(=O)[C@H](C(C)C)NC(=O)[C@H](C)NC(=O)CSC[C@@H](C(=O)NCC(=O)NCC(=O)NCC(=O)NCC(=O)N[C@@H](CO)C(=O)N[C@@H](CO)C(=O)N[C@@H](CCCCN=[N+]=[N-])C(N)=O)NC(=O)[C@H](Cc2ccc(O)cc2)N(C)C(=O)[C@H](Cc2ccncc2)NC(=O)[C@H](CCCNC(=N)N)NC(=O)[C@H](CCCNC(=N)N)NC(=O)[C@H]([C@@H](C)CC)NC1=O [compound 191] |  |  | Kd ([1]; SPR, pH 7.4, Table 1-3-2-2): 0.89 nM; Kd ([2]; SPR, pH 6.0, Table 1-3-2-2): 3.82 nM
7 | CCC(CC)[C@@H]1NC(=O)[C@H](Cc2ccc(OCC(=O)O)cc2)NC(=O)[C@H](Cc2ccc(O)cc2)NC(=O)[C@H](CC(N)=O)NC(=O)[C@H](Cc2c[nH]c3ccccc23)NC(=O)[C@H](C(C)C)NC(=O)[C@H](Cc2cccc(Cl)c2)N(C)C(=O)[C@H](C(C)C)NC(=O)[C@H](C)NC(=O)CSC[C@@H](C(=O)NCCOCCOCCOCCOCCC(N)=O)NC(=O)[C@H](Cc2ccc(O)cc2)N(C)C(=O)[C@H](Cc2cccc(C(=O)NCCOCCOCCOCCOCCC(=O)O)c2)NC(=O)[C@H](CCCNC(=N)N)NC(=O)[C@H](CCC(N)=O)NC(=O)[C@H]([C@@H](C)CC)NC1=O [compound 112] ({CH2CO}-AV[NMePhe(3-Cl)]VWNYY(Carboxymethyl)[Nva(3-Et)]IQR[X1](PEG4)[NMeY]C[PEG4]-NH2; thioether N-15) |  |  | Kd [1, 3]: 3.53 nM; Kd [2, 4]: 11.5 nM
8 | CC[C@H](C)[C@@H]1NC(=O)[C@H](Cc2ccc(OC)cc2)NC(=O)[C@H](Cc2ccc(O)cc2)NC(=O)[C@H](CC(N)=O)NC(=O)[C@H](Cc2c[nH]c3ccccc23)N(C)C(=O)[C@H](C(C)C)NC(=O)[C@H](Cc2cccc(Cl)c2)N(C)C(=O)[C@H](C(C)C)NC(=O)[C@H](C)NC(=O)CSC[C@@H](C(=O)NCCOCCOCCOCCOCCC(N)=O)NC(=O)[C@H](Cc2ccc(C(=O)NCCOCCOCCOCCOCCC(=O)O)cc2)N(C)C(=O)[C@H](Cc2cccc(C(=O)O)c2)NC(=O)[C@H](CCCNC(=N)N)NC(=O)[C@H](CCCCN)NC(=O)[C@H]([C@@H](C)CC)NC1=O [compound 180] ({CH2CO}-AV[NMePhe(3-Cl)]V[NMeW]NYY(Me)IIKR[Phe(3-COOH)][NMePhe(4-COOH)](PEG4)C[PEG4]-NH2; thioether N-15) | 0.229 | 0.957 | 
9 | CC[C@H](C)[C@@H]1NC(=O)[C@H](Cc2ccc(OCC(=O)NC[C@H](O)[C@@H](O)[C@H](O)[C@H](O)CO)cc2)NC(=O)[C@H](Cc2ccc(O)cc2)NC(=O)[C@H](CC(N)=O)NC(=O)[C@H](Cc2c[nH]c3ncccc23)NC(=O)[C@H](C(C)C)NC(=O)[C@H](Cc2cccc(Cl)c2)N(C)C(=O)[C@H](C(C)C)NC(=O)[C@H](C)NC(=O)CSC[C@@H](C(=O)NCCOCCOCCOCCOCCC(N)=O)NC(=O)[C@H](Cc2ccc(O)cc2)N(C)C(=O)[C@H](Cc2ccncc2)NC(=O)[C@H](CCCNC(=N)N)NC(=O)[C@H](CCC(=O)NC[C@H](O)[C@@H](O)[C@H](O)[C@H](O)CO)NC(=O)[C@H]([C@@H](C)CC)NC1=O [compound 26] | 1.73 | 13.4 | 
10 | CC[C@H](C)[C@@H]1NC(=O)[C@H](Cc2ccc(OCC(=O)N3CCN(CC(=O)O)CC3)cc2)NC(=O)[C@H](Cc2ccc(O)cc2)NC(=O)[C@H](CC(N)=O)NC(=O)[C@H](Cc2c[nH]c3ncccc23)NC(=O)[C@H](C(C)C)NC(=O)[C@H](Cc2cccc(Cl)c2)N(C)C(=O)[C@H](C(C)C)NC(=O)[C@H](C)NC(=O)CSC[C@@H](C(=O)NCCOCCOCCOCCOCCC(N)=O)NC(=O)[C@H](Cc2ccc(O)cc2)N(C)C(=O)[C@H](Cc2cccc(C(=O)O)c2)NC(=O)[C@H](CCCCN2CCOCC2)NC(=O)[C@H](CCC(N)=O)NC(=O)[C@H]([C@@H](C)CC)NC1=O [compound 24] ({CH2CO}-AV[NMePhe(3-Cl)]V[Trp(7-aza)]NYY(CH2CON(CH2CH2)2NCH2COOH)IIQ[Nle(6-morpholino)][Phe(3-COOH)][NMeY]C[PEG4]-NH2; thioether N-15) | 2.01 | 26.7 | 
11 | CC[C@H](C)[C@@H]1NC(=O)[C@H](Cc2ccc(OC)cc2)NC(=O)[C@H](Cc2ccc(N)nc2)NC(=O)[C@H](CC(N)=O)NC(=O)[C@H](Cc2c[nH]c3ncccc23)NC(=O)[C@H](C(C)C)NC(=O)[C@H](Cc2cccc(Cl)c2)N(C)C(=O)[C@H](C(C)C)NC(=O)[C@H](C)NC(=O)CSC[C@@H](C(=O)NCCOCCOCCOCCOCCC(N)=O)NC(=O)[C@H](Cc2ccc(O)cc2)N(C)C(=O)[C@H](Cc2ccncc2)NC(=O)[C@H](CCCCN2CCOCC2)NC(=O)[C@H](CCCCN2CCOCC2)NC(=O)[C@H]([C@@H](C)CC)NC1=O [compound 4] ({CH2CO}-AV[NMePhe(3-Cl)]V[Trp(7-aza)]N[3Pal(6-NH2)]Y(Me)II[Nle(6-morpholino)][Nle(6-morpholino)][4Pal][NMeY]C[PEG4]-NH2; thioether N-15) | 2.19 | 29.7 | 
12 | CC[C@H](C)[C@@H]1NC(=O)[C@H](Cc2ccc(OCC(=O)N3CCN(CC(=O)O)CC3)cc2)NC(=O)[C@H](Cc2ccc(O)cc2)NC(=O)[C@H](CC(N)=O)NC(=O)[C@H](Cc2cn(CC(=O)O)c3ccccc23)NC(=O)[C@H](C(C)C)NC(=O)[C@H](Cc2cccc(Cl)c2)N(C)C(=O)[C@H](C(C)C)NC(=O)[C@H](C)NC(=O)CSC[C@@H](C(=O)NCCOCCOCCOCCOCCC(N)=O)NC(=O)[C@H](Cc2ccc(O)cc2)N(C)C(=O)[C@H](Cc2cccc(C(=O)O)c2)NC(=O)[C@H](CCCCN2CCOCC2)NC(=O)[C@H](CCC(N)=O)NC(=O)[C@H]([C@@H](C)CC)NC1=O [compound 35] ({CH2CO}-AV[NMePhe(3-Cl)]V[Trp(1-CH2COOH)]NYY(CH2CON(CH2CH2)2NCH2COOH)IIQ[Nle(6-morpholino)][Phe(3-COOH)][NMeY]C[PEG4]-NH2; thioether N-15) | 1.74 | 37 | 
